Results: US10100045B2, “3-aryl-2H-pyrazolo[4,3-b]pyridine compounds and their use as AMPA receptor modulators” (Janssen Pharmaceutica NV, priority 2016, dated 2018)

Each compound was assayed against GluA1o-γ8 (GRIA1o-CACNG8 fusion construct; TARP γ8 dependent AMPA receptor) (Homo sapiens (Human), UniProt P42261+Q8WXS5) (assay: Calcium flux assay (FLIPR), inhibition of glutamate response of GluA1o-γ8 channel). Conditions: HEK293 cells stably expressing GRIA1o-CACNG8 fusion; 15 μM glutamate; negative log of the IC50 in molar.
Sequence of GluA1o-γ8 (GRIA1o-CACNG8 fusion construct; TARP γ8 dependent AMPA receptor) (P42261 other isoform, or with tags, fused parts or gaps): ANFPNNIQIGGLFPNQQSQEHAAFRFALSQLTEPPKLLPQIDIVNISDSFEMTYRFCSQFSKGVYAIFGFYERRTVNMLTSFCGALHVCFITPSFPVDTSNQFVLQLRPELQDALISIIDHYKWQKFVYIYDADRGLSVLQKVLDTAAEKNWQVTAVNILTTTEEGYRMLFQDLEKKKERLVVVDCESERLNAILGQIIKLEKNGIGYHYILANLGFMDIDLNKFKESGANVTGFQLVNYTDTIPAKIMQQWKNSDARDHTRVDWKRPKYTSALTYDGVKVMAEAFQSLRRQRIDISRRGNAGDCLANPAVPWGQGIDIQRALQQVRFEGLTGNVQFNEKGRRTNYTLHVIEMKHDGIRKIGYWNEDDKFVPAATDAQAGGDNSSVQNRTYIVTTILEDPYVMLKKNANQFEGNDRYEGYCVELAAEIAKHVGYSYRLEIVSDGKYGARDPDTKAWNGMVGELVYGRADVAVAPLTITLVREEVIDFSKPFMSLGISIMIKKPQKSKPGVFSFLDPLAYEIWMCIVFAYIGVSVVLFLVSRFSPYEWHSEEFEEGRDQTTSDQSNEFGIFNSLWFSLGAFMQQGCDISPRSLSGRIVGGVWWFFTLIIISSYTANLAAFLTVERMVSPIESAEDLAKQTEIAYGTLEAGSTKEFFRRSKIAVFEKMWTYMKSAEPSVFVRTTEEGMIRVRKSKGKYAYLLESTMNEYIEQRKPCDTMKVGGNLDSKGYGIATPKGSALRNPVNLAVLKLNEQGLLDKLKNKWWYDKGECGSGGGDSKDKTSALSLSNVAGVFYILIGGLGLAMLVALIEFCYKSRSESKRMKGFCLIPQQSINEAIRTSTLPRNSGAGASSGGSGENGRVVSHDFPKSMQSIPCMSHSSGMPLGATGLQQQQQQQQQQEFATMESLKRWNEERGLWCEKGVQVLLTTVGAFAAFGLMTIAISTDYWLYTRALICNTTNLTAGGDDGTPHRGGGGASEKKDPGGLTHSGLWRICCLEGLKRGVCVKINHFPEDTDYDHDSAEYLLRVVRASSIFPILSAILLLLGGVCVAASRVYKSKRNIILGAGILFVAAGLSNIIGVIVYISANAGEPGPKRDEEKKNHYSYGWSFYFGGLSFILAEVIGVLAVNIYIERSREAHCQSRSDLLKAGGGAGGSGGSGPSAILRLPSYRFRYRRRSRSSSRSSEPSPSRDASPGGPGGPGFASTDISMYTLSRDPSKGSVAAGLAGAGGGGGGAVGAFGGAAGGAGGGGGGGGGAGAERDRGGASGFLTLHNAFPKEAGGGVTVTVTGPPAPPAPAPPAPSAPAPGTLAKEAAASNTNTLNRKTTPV
Type: cell-based
Excerpt: This assay was used to test compounds for their ability to inhibit TARP γ8 dependent AMPA receptor activity. The AMPA receptor is a non-selective cation channel activated by glutamate. Ionotropic glutamate receptors normally desensitize too rapidly to allow detectable calcium influx in a FLIPR assay (Strange et al. (2006). “Functional characterisation of homomeric ionotropic glutamate receptors GluR1-GluR6 in a fluorescence-based high throughput screening assay.” Comb Chem High Throughput Screen 9(2): 147-158). But, this desensitization is incomplete, and a substantial steady-state current remains in the sustained presence of glutamate (Cho et al. (2007). “Two families of TARP isoforms that have distinct effects on the kinetic properties of AMPA receptors and synaptic currents.” Neuron 55(6): 890-904). An in vitro assay was used to determine the potency of test compounds as inhibitors of the glutamate response of the channel formed by GluA1o-γ8. To ensure a 1:1 stoichiometry of GluA1o and γ8 subunits in the expressed channel, a fusion of the cDNAs for GRIA1o and CACNG8 was used. Following Shi et al (2009) “The stoichiometry of AMPA receptors and TARPs varies by neuronal cell type.” Neuron 62(5): 633-640), the C-terminus of the cDNA for GRIA1o was fused to the N-terminus of the cDNA for γ8. The linker sequence was QQQQQQQQQQEFAT. Channels expressed with this construct appear to have similar properties to channels formed by co-expression of GRIA1o with an excess of CACNG8 (Shi et al. 2009). A clonal cell line in HEK293 cells stably expressing this construct, with a geneticin selection marker, was generated for use in this assay.
Cell expressing the GRIA1o-CACNG8 fusion construct were grown in a monolayer in 96- or 384-well microtiter plates. They were washed with assay buffer (135 mM NaCl, 4 mM KCl, 3 mM CaCl2, 1 mM MgCl2, 5 mM glucose, 10 mM HEPES, pH 7.4, 300 mOs) using a Biotek EL405 plate washer. The cells were then loaded with a calcium-sensitive dye (Calcium-5 or Calcium-6, Molecular Devices) and the test compounds at a range of concentrations. Calcium flux following the addition of 15 μM glutamate was monitored using a Molecular Devices FLIPR Tetra. The fluorescence in each well was normalized to the fluorescence of negative and positive control wells. The negative control wells had no added compounds, and the positive control wells had been incubated with 10 μM CP465022 (a non-subtype-selective AMPA receptor antagonist) (Lazzaro et al. (2002). “Functional characterization of CP-465,022, a selective, noncompetitive AMPA receptor antagonist.” Neuropharmacology 42(2): 143-153). The responses to glutamate as functions of the test compound concentrations were fitted to a four-parameter logistic function. The fitted parameter corresponding to the midpoint was taken to be the potency of inhibition of the compound. The data in Table 3 below illustrates the observed potentcy for the compounds described herein. pIC50 refers to the negative log of the IC50 in molar.

SMILES	pIC50
Cc1cc(-c2c3nccc(C(F)F)c3nn2C(C)C)cc2cn[nH]c12 [Example 38, 7-(Difluoromethyl)-2-isopropyl-3-(7-methyl-1H-indazol-5-yl)pyrazolo[4,3-b]pyridine]	6.9
CC(C)n1nc2cccnc2c1-c1cc(Cl)c2[nH]ncc2c1 [Example 39, 3-(7-Chloro-1H-indazol-5-yl)-2-isopropyl-pyrazolo[4,3-b]pyridine]	7.2
Cc1cc(-c2c3nc(C(F)F)cc(C(F)F)c3nn2C(C)C)cc2cn[nH]c12 [Example 40, 5,7-Bis(difluoromethyl)-2-isopropyl-3-(7-methyl-1H-indazol-5-yl)pyrazolo[4,3-b]pyridine]	9.8

The remaining lines, values ahead:

pIC50	SMILES
10.0	Cc1cc(-c2c3nc(C(F)F)ccc3nn2C(C)C)cc2cn[nH]c12 [Example 34, 5-(Difluoromethyl)-2-isopropyl-3-(7-methyl-1H-indazol-5-yl)-2H-pyrazolo[4,3-b]pyridine]
9.4	CC(C)n1nc2ccc(C(F)F)nc2c1-c1cc(Cl)c2c(c1)CC(=O)N2 [Example 36, 7-Chloro-5-(5-(difluoromethyl)-2-isopropyl-2H-pyrazolo[4,3-b]pyridin-3-yl)indolin-2-one]
